Results on two compounds are retold here after US8771691B2, “Methods for the treatment and the prognostic assessment of malignant pleural mesothelioma” (Inserm (Institut National de la Sante et de la Recherche …, priority 2008, dated 2014).

Assay [1] has as its system MSTO-211H cells. Nature of the assay: Cellular growth of MSTO-211H cells. As to conditions: 10^-6 M; cells counted after 24, 48 and 72 h. The format is cell-based, human. The method, then: (§1) The human mesothelioma cell line, MSTO-211H, was selected because of its intense proliferative activity and its aggressive profile (ATCC CRL-2081, 211H). The MSTO-211H cells were grown in RPMI-1640 medium (Invitrogen, USA) supplemented with 10% fetal calf serum (PAATM) and 2 mM glutamine (Gibco®). Cells were stored at 37° in 5% CO2 atmosphere.
Cellular growth was performed using 6 well-tissue-culture dishes. 15×10^4 MSTO-211H cells were seeded, after 24 h cells were washed twice with PBS, and complete media containing either 10^−6M SR 48692, a NTSR1 antagonist, or 10^−4M de DMSO was added to the cells. After 24, 48, and 72 h of growth, cells were trypsinized and counted with a cells coulter (Z1 Coulter® Particle Counter, Beckman Coulter™).

Assay [2] concerns MSTO-211H cells. Nature of the assay: Collagen invasion assay (type I collagen). The conditions noted are these: 5x10^-6 M SR48692 or 1:50 anti-NTS antibody; 48 hours; controls 13% (untreated), 11% (DMSO). The format is cell-based, human. The method, then: as §1
Collagen invasion assay was performed by using tissue culture inserts composed of a 8 μm porous polycarbonate membrane, placed as inner chamber in 24 well-tissue-culture dishes. This membrane was coated with […] of 2 mg/ml type I collagen diluted in RPMI-1640 medium (Collagen type I, rat tail, Upstate). The bottom chamber was filled with 500 μL RPMI-1640 medium supplemented with 10% fetal calf serum and 2 mM glutamine. 10^3 MSTO-211H cells were seeded on the top of the inner chamber. Cells were treated with 5×10^−6 M of NTSR1 antagonist SR48692 or with 1:50 solution of anti-NTS rabbit antibody (NA1230, Tebu-Bio). Cells were placed for 48 hours at 37° C. in 5% CO2 atmosphere. After incubation, non invasive cells on the upper surface of the collagen matrix were wiped off with cotton swabs. Filter membranes were fixed with 5% glutaraldehyde and remaining cells stained with 0.5% toluidine blue. Quantitation of invasive cells was carried out at the 400× magnification by using the software CELINA.

The test system of assay [3] is MSTO-211H cells. Briefly: Wound healing assay (cell migration). The class given is cell-based, human. As to conditions: 10^-6 M; at 24 and 30 hours; 0.5% FCS; controls 27% (untreated), 30% (DMSO). As for the experimental part:
as §1
In order to evaluate the impact of the neurotensinergic system on cell migration, a wound healing assay was performed. 1.75×10^6 MSTO-211H cells were plated per well in 6 well dishes containing the medium in order to reach confluence. After 24 hours cells were serum-starved and scarification was performed in a Moscona buffer with a 20 μl pipette tip. Cells were maintained in culture with low serum medium (0.5% FCS) and treated with 10^−6 M SR48692. Control cells were exposed or not to the SR48692 solvent, DMSO. Pictures were taken at the beginning and 24 and 30 hours later with a photonic microscope. The “remaining gap” was calculated as percentage between wound size at 30 hours and initial wound size.

For assay [4] the following is noted: patients with MPM, randomized study, two arms; cited from earlier work.

For `COc1cccc(OC)c1-c1cc(C(=O)NC2(C(=O)O)C3CC4CC(C3)CC2C4)nn1-c1ccnc2cc(Cl)ccc12` (stereo not shown) [SR48692], in assay [1], the “effect on cell growth” value is “no effect”. The “cells that invaded the type I collagen” value in assay [2] is listed as 4%. Also, the “residual gap (% of original gap)” value in assay [3] amounted to 48%.

For the compound `N.N.[Cl][Pt][Cl]` [cisplatin], the median survival in assay [4] is recorded as 9.3 months.
